Active and inactive are the calls of the source. No cut-off for these calls is given here.
Tests used:
[1] = target: T1, Neuronal acetylcholine receptor subunit alpha-7 (Homo sapiens, UniProt P36544); assay: Displacement of [125I]-alpha-bungarotoxin from human alpha7 nAChR expressed in human SH-SY5Y cell membranes after 30 mins by gamma counting analysis
[2] = target: T1, Neuronal acetylcholine receptor subunit alpha-7; assay: Antagonist activity at human alpha7 nACHR expressed in xenopous laevis oocyte assessed as inhibition of ACh-induced channel current after 5 mins at -70 mV holding potential by two electrode voltage clamp method
U-87 MG [3] = assay: Reduction in mitochondrial membrane potential in human U87MG cells after 72 hr by TMRM-staining based assay; conditions: U-87MG ATCC
U-87 MG [4] = assay: Cytotoxicity against human U87MG cells assessed as decrease in ATP production at 4 uM after 72 hrs by luciferin-luciferase-based luminescent assay; assay type: functional, cell-based; conditions: U-87MG ATCC
U-87 MG [5] = assay: Reduction in mitochondrial membrane potential in human U87MG cells after 72 hrs by TMRM-staining based assay; assay type: functional, cell-based; conditions: U-87MG ATCC
U-87 MG [6] = assay: cells; conditions: Homo sapiens, 72 h
Description: Antiproliferative activity against human U87MG cells after 72 hrs by MTS assay

SH-SY5Y = assay: Antiproliferative activity against human SH-SY5Y cells after 72 hrs by MTS assay
Astrocyte = assay: Cytotoxicity against mouse astrocytes assessed as reduction in cell viability after 72 hrs by MTS assay
A549 = assay: cells; conditions: Homo sapiens, A549, 72 h
Description: Antiproliferative activity against human A549 cells after 72 hrs by MTS assay

U-87 MG [7] = assay: Induction of ROS production in human U87MG cells after 1 hr by MitoSOX Red mitochondrial superoxide indicator based FACS analysis; assay type: functional, cell-based; conditions: U-87MG ATCC
[8] = target: Neuronal acetylcholine receptor; alpha9/alpha10 (Homo sapiens, UniProt Q9GZZ6+Q9UGM1); assay: Antagonist activity at human alpha9alpha10 nACHR expressed in xenopous laevis oocyte assessed as inhibition of ACh-induced channel current after 5 mins at -70 mV holding potential by two electrode voltage clamp method
Sequence of Neuronal acetylcholine receptor; alpha9/alpha10 (Q9UGM1 whole entry): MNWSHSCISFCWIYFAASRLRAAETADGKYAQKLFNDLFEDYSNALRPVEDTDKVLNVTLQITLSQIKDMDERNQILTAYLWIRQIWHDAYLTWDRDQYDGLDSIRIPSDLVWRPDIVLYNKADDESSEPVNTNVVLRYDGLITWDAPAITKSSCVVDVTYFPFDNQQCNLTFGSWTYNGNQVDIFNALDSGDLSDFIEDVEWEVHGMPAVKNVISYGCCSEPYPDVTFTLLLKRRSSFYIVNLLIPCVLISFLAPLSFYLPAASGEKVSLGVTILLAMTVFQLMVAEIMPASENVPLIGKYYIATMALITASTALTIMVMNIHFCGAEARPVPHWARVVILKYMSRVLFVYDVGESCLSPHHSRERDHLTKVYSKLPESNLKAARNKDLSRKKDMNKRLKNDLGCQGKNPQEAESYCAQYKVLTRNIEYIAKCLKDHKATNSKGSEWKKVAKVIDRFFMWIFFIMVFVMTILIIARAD
Sequence of Neuronal acetylcholine receptor; alpha9/alpha10 (Q9GZZ6 whole entry): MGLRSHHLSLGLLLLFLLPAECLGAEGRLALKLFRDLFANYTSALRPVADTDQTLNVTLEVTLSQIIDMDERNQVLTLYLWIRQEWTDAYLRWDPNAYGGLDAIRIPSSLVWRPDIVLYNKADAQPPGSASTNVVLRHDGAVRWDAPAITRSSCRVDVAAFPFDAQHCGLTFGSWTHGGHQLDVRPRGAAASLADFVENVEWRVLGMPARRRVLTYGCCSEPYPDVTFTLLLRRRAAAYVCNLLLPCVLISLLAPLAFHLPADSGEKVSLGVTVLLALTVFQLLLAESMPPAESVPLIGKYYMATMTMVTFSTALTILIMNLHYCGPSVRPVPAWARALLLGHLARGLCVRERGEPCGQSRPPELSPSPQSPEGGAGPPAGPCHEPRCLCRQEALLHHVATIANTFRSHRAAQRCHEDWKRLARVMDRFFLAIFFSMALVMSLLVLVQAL

U-87 MG [9] = assay: Induction of ROS production in human U87MG cells at 500 nM after 1 hr by MitoSOX Red mitochondrial superoxide indicator based FACS analysis relative to antimycin A; assay type: functional, U-87MG ATCC
[10] = Drug uptake in human HepG2 cells assessed as relative fluorescence unit at 10 uM after 6 hrs by fluorescent plate reader based assay; assay type: ADME, cell-based; conditions: hepg2, 6 h
[11] = Drug uptake in human HepG2 cells assessed as relative fluorescence unit at 10 uM after 24 hrs by fluorescent plate reader based assay; assay type: ADME, cell-based; conditions: hepg2, 24 h
[12] = Drug uptake in human HepG2 cells by fluorescent plate reader based assay; assay type: ADME, cell-based
[13] = Drug uptake in human HepG2 cells assessed as relative fluorescence unit at 50 uM after 24 hrs by fluorescent plate reader based assay; assay type: ADME, cell-based; conditions: hepg2, 24 h
[14] = Drug metabolism in human HepG2 cells assessed as loss of styrene moiety at 100 uM incubated for 24 hrs by MS/MS analysis; assay type: ADME, cell-based; conditions: hepg2, 24 h
[15] = Drug uptake in human HepG2 cells assessed as relative fluorescence unit at 1 uM after 24 hrs by fluorescent plate reader based assay; assay type: ADME, cell-based; conditions: hepg2, 24 h
[16] = Drug uptake in human HepG2 cells assessed as relative fluorescence unit at 100 uM after 24 hrs by fluorescent plate reader based assay; assay type: ADME, cell-based; conditions: hepg2, 24 h
[17] = Drug uptake in human HepG2 cells assessed as relative fluorescence unit at 1 uM after 6 hrs by fluorescent plate reader based assay; assay type: ADME, cell-based; conditions: hepg2, 6 h
[18] = Drug uptake in human HepG2 cells assessed as relative fluorescence unit at 100 uM after 6 hrs by fluorescent plate reader based assay; assay type: ADME, cell-based; conditions: hepg2, 6 h
[19] = Drug uptake in human HepG2 cells assessed as relative fluorescence unit at 50 uM after 6 hrs by fluorescent plate reader based assay; assay type: ADME, cell-based; conditions: hepg2, 6 h
[20] = Drug uptake in human HepG2 cells assessed as relative fluorescence unit at 1 uM after 1 hr to 24 hrs by fluorescent plate reader based assay; assay type: ADME, cell-based; conditions: hepg2, 1 µM
U-87 MG [21] = assay: Cytotoxicity against human U87MG cells assessed as decrease in ATP production at 2 uM after 72 hrs by luciferin-luciferase-based luminescent assay; assay type: functional, cell-based; conditions: U-87MG ATCC
U-87 MG [22] = assay: Cytotoxicity against human U87MG cells assessed as decrease in ATP production at 2 uM after 1 hr by luciferin-luciferase-based luminescent assay; assay type: functional, cell-based; conditions: U-87MG ATCC
U-87 MG [23] = assay: Cytotoxicity against human U87MG cells assessed as decrease in ATP production at 0.1 uM after 1 hr by luciferin-luciferase-based luminescent assay; assay type: functional, cell-based; conditions: U-87MG ATCC
U-87 MG [24] = assay: Cytotoxicity against human U87MG cells assessed as decrease in ATP production at 0.1 uM after 72 hrs by luciferin-luciferase-based luminescent assay; assay type: functional, cell-based; conditions: U-87MG ATCC
U-87 MG [25] = assay: Cytotoxicity against human U87MG cells assessed as decrease in ATP production at 1 uM after 72 hrs by luciferin-luciferase-based luminescent assay; assay type: functional, cell-based; conditions: U-87MG ATCC
U-87 MG [26] = assay: Cytotoxicity against human U87MG cells assessed as decrease in ATP production at 1 uM after 1 hr by luciferin-luciferase-based luminescent assay; assay type: functional, cell-based; conditions: U-87MG ATCC

T1 sequence (P36544 whole entry): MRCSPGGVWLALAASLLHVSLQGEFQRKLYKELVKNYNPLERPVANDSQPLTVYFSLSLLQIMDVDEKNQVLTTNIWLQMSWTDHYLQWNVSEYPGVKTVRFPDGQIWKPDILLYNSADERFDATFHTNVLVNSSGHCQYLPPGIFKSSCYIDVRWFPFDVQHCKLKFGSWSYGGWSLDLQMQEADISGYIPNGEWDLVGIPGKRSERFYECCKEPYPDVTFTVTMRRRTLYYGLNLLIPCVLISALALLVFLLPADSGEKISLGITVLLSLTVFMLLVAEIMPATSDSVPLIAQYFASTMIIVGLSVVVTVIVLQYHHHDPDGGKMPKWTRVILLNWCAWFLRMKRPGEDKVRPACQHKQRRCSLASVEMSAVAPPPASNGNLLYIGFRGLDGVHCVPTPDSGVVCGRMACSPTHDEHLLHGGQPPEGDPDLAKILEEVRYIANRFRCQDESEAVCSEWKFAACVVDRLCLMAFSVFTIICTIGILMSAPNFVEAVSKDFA

SMILES | Ki [1] [nM] | IC50 [2] [nM] | Activity (U-87 MG [3]) | Activity (U-87 MG [5]) | IC50 (U-87 MG [6]) [nM] | IC50 (A549) [nM] | Activity (U-87 MG [9]) [%] | also measured
CC[N+](CC)(CC)CCCCOc1ccc(/C=C/c2cc(OC)cc(OC)c2)cc1 | 305 | 24.3 | – | – | – | – | – | –
CC[N+](CC)(CC)CCOc1ccc(/C=C/c2cc(OC)cc(OC)c2)cc1 | – | – | Active | Active | 5300 | 12000 | – | Activity (U-87 MG [4]): Active; IC50 (SH-SY5Y): > 100000 nM; IC50 (Astrocyte): 23000 nM; Activity (U-87 MG [7]): inactive; IC50 [8]: 17.2 nM
C(=C\c1ccc(OCCC[P+](c2ccccc2)(c2ccccc2)c2ccccc2)cc1)/c1ccccc1.[I-] | 984 | – | – | – | 1400 | 1800 | 21 | –
C(=C\c1ccc(OCCCCCCC[P+](c2ccccc2)(c2ccccc2)c2ccccc2)cc1)/c1ccccc1.[I-] | 617 | – | – | – | 360 | 120 | 39.5 | –
C(=C\c1ccc(OCCCCC[P+](c2ccccc2)(c2ccccc2)c2ccccc2)cc1)/c1ccccc1.[I-] | 2800 | – | – | – | 670 | 320 | 20 | –
C(=C\c1ccc(OCCCCCCCCC[P+](c2ccccc2)(c2ccccc2)c2ccccc2)cc1)/c1ccccc1.[I-] | 1290 | – | – | – | 90 | 110 | 56.3 | –
CC[N+](CC)(CC)CCOc1ccc(/C=C/c2ccccc2)cc1.[I-] [STILONIUM IODIDE] | – | – | Active | Active | – | – | – | Drug uptake [10]: 6.82 RFU; Drug uptake [11]: 7.18 RFU; Drug uptake [12]: Dose-dependent effect and Tde; Activity (U-87 MG [4]): Active; Drug uptake [13]: 9.13 RFU; Drug metabolism [14]: Metabolite_Detected; Drug uptake [15]: 5.42 RFU; Drug uptake [16]: 14.35 RFU; Drug uptake [17]: 4.75 RFU; Drug uptake [18]: 9.43 RFU; Drug uptake [19]: 7.67 RFU
C(=C\c1ccc(OCCCCCCCC[P+](c2ccccc2)(c2ccccc2)c2ccccc2)cc1)/c1ccccc1.[I-] | 909 | – | – | – | 70 | 260 | 46.3 | Drug uptake [20]: Active
C(=C\c1ccc(OCCCC[P+](c2ccccc2)(c2ccccc2)c2ccccc2)cc1)/c1ccccc1.[I-] | 1640 | – | Active | Active | 640 | 420 | 1.5 | Activity (U-87 MG [21]): Active; Activity (U-87 MG [22]): Active; IC50 (SH-SY5Y): 3000 nM; IC50 (Astrocyte): 400 nM; Activity (U-87 MG [7]): Dose-dependent effect
CC[N+](CC)(CC)CCCCCCOc1ccc(/C=C/c2ccccc2)cc1 | 465 | 12.3 | – | – | – | – | – | –
C(=C\c1ccc(OCCCCCCCCCC[P+](c2ccccc2)(c2ccccc2)c2ccccc2)cc1)/c1ccccc1.[I-] | 1930 | – | Active | Active | 60 | 100 | 58.2 | Activity (U-87 MG [23]): Active; IC50 (SH-SY5Y): 210 nM; IC50 (Astrocyte): 600 nM; Activity (U-87 MG [24]): Active; Activity (U-87 MG [7]): Dose-dependent effect
C(=C\c1ccc(OCCCCCC[P+](c2ccccc2)(c2ccccc2)c2ccccc2)cc1)/c1ccccc1.[I-] | 559 | – | – | – | 380 | 150 | 27.3 | –
COc1cc(/C=C/c2ccc(OCCCC[P+](c3ccccc3)(c3ccccc3)c3ccccc3)cc2)cc(OC)c1.[I-] | 1830 | > 10000 | Active | Active | 860 | 260 | 16.3 | IC50 (SH-SY5Y): 550 nM; Activity (U-87 MG [25]): Active; IC50 (Astrocyte): 1000 nM; Activity (U-87 MG [26]): Active; Activity (U-87 MG [7]): Dose-dependent effect; IC50 [8]: > 10000 nM
CC[N+](CC)(CC)CCCCOc1ccc(/C=C/c2ccccc2)cc1.[I-] | 186 | 6.5 | – | – | – | – | – | Drug uptake [20]: Active
CC[N+](CC)(CC)CCCCCCCCOc1ccc(/C=C/c2ccccc2)cc1.[I-] | 164 | 92 | – | – | – | – | – | Drug uptake [20]: Active

Source: ChEMBL document CHEMBL4261640, “Potent Antiglioblastoma Agents by Hybridizing the Onium-Alkyloxy-Stilbene Based Structures of an α7-nAChR, α9-nAChR Antagonist and of a Pro-Oxidant Mitocan” (J Med Chem, 2018)
